{
  "source": "paper PMC7281280",
  "about": "“Is the Way to Fight Cancer Paved with Gold? Metal-Based Carbene Complexes with Multiple and Fascinating Biological Features” (Pharmaceuticals, 2020)",
  "key": {"[1]": {"biological_target": "T1, human topoisomerase I (hTopo I) (Homo sapiens, UniProt P11387)", "T1 construct": "purchased TopoGEN, Port Orange, FL, USA", "T1 sequence (P11387 1-765)": "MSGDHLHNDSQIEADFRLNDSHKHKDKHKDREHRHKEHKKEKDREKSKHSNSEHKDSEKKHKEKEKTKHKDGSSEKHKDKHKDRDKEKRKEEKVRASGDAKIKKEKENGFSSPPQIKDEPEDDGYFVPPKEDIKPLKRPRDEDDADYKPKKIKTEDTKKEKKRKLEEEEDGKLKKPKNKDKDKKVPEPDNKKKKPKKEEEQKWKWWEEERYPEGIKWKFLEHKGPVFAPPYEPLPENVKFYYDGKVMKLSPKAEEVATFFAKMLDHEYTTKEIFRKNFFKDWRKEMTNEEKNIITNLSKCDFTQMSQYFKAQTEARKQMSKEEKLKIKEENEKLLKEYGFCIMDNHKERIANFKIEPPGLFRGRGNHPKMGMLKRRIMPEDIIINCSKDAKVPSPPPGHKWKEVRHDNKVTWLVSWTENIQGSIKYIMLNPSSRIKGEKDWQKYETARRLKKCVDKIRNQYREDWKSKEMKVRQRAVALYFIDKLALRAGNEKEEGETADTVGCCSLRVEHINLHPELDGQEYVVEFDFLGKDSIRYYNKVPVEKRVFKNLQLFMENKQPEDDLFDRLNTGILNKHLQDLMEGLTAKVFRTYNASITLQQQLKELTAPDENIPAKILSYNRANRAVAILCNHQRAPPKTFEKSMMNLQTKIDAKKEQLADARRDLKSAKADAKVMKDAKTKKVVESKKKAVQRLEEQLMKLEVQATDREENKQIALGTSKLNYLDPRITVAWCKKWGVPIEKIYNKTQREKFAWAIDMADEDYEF", "assay": "Human topoisomerase I relaxation assay", "format": "biochemical", "details": "1 μM", "method": "Topoisomerases are essential enzymes involved in DNA metabolism, because of their ability to cause temporary DNA strand breakage, and tightly involved, if overexpressed, in cancer development.\nhTopo I relaxation assays have been performed in a final volume of […], as reported by Iacopetta et al., incubating […] of supercoiled plasmid pHOT1 in Tris-EDTA (TE) buffer (TopoGEN, Port Orange, FL, USA) with tested compounds and recombinant hTopo I (2 units) (TopoGEN, Port Orange, FL, USA) for 1h at 37 °C. The obtained solution has been loaded in a 1% agarose gel containing 1× Tris-acetate-EDTA (TAE) buffer without ethidium bromide (EB). Agarose gel has been stained using 1× TAE buffer with EB ([…]) for 30 min and after washed with distilled water for 15 min. At the end, it has been visualized by using a ultraviolet (UV) transilluminator. The experiment was performed in triplicate.\nFigure 7 hTopoI assay."}, "[2]": {"tested_on": "Hek-293 human embryonic kidney epithelial cells", "assay": "MTT cell viability, normal Hek-293", "format": "cell-based", "method": "The six cell lines used in this work (MCF-7, MDA-MB-231, HeLa, […], MCF-10A and Hek-293) were purchased from American Type Culture Collection (ATCC, Manassas, VA, USA). MCF-7 human breast cancer cells, estrogen receptor (ER)-positive, were maintained in Dulbecco’s modified Eagle’s medium/nutrient mixture Ham F-12 (DMEM/F12), supplemented with 10% fetal bovine serum (FBS) and 100 U mL^−1 penicillin/streptomycin. MCF-10A human mammary epithelial cells, were cultured in DMEM/F12 medium, supplemented with 5% horse serum (HS, Thermo Fisher Scientific, Milan, Italy), 100 U mL^−1 penicillin/streptomycin, […] hydrocortisone, 20 ng mL^−1 human epidermal growth factor (hEGF), […] insulin, and […] cholera enterotoxin (Sigma–Aldrich, Milan, Italy). MDA-MB-231 human breast cancer cells, known as triple-negative cells (i.e., not overexpressing human epidermal growth factor receptor 2 (HER2), estrogen and progesterone receptors), were cultured in DMEM/F12 supplemented with 5% FBS, 1% L-glutamine and 100 U mL^−1 penicillin/streptomycin. HeLa human epithelial cervix carcinoma cells, estrogen receptor (ER)-negative, and […] human endometrial adenocarcinoma cells, estrogen receptor (ER)-positive, were maintained in minimum essential Eagle’s Medium (MEM), supplemented with 10% FBS, 1% L-glutamine, 100 U mL^−1 penicillin/streptomycin and 1% Non-Essential Amino Acids (NEAA). Hek-293 human embryonic kidney epithelial cells were cultured in DMEM high glucose (4.5 g L^−1), supplemented with 10% FBS, 1% L-glutamine and 100 U mL^–1 penicillin/streptomycin. Cells were maintained at 37 °C in a humidified atmosphere of 95% air and 5% CO2 and periodically screened for contamination.\nCell viability has been determined using the 3-(4,5-dimethylthiazol-2-y1)-2,5-diphenyltetrazolium bromide (MTT, Sigma–Aldrich, Milan, Italy) assay. Cells have been seeded on 48-well plates and grown in complete medium. Before being treated, cells have been starved in serum free medium for 24 h for allowing cell cycle synchronization. […] Data are representative of three independent experiments; standard deviations (SD) have been shown."}, "[3]": {"biological_target": "T2, human topoisomerase II (hTopo II) (Homo sapiens, UniProt P11388)", "T2 construct": "purchased topoGEN, Port Orange, FL, USA", "T2 sequence (P11388 whole entry)": "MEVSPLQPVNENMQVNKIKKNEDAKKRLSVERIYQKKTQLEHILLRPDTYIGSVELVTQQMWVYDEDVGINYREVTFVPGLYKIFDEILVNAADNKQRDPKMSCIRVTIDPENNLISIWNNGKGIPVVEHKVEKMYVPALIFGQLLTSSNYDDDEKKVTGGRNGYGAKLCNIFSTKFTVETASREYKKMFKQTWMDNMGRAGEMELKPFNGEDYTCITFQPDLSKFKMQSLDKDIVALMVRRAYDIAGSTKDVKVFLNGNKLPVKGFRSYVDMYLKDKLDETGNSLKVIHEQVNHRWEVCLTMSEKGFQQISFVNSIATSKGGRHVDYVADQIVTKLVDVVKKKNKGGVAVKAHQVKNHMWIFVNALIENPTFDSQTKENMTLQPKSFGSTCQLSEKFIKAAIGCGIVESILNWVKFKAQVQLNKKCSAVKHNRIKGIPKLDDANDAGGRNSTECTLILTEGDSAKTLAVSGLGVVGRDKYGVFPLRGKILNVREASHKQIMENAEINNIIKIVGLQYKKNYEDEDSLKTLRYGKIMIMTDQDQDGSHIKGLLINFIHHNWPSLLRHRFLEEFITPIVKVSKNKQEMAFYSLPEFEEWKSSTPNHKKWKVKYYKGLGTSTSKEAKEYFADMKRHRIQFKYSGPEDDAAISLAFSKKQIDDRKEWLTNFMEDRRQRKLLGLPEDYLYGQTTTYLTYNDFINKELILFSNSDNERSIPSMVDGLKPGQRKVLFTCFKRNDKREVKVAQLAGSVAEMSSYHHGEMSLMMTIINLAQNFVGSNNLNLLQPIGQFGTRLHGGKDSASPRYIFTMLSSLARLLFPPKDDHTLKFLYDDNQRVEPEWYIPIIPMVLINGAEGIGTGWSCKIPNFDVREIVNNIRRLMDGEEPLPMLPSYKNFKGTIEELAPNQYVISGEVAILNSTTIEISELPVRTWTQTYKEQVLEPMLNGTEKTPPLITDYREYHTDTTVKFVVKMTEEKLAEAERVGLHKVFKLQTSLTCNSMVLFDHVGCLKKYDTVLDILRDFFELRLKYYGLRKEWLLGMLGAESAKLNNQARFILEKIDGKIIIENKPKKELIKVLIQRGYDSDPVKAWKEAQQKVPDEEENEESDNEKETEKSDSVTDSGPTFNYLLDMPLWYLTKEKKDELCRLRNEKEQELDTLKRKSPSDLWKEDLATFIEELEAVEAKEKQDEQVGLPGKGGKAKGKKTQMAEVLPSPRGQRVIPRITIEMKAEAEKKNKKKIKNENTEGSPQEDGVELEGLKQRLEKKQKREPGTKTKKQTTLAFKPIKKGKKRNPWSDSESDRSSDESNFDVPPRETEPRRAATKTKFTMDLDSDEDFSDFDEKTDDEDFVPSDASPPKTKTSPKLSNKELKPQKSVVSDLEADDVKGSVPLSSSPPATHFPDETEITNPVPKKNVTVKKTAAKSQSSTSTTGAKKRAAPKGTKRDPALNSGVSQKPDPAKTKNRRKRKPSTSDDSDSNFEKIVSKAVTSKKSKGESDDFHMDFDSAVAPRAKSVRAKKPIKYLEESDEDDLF", "assay": "Human topoisomerase II decatenation assay", "format": "biochemical", "details": "1 μM", "method": "Decatenated and linear kDNA (Figure 8, lanes 1 and 2) are used as markers.\nhTopo II decatenation assays were performed in a final volume of […], as reported by Iacopetta et al., using […] of kinetoplast DNA (kDNA) (topoGEN, Port Orange, FL, USA), tested compounds and 3 units of hTopo II (topoGEN, Port Orange, FL, USA). The reaction products were loaded in an agarose gel with EB. At the end, the gel was washed with distilled water and analyzed using a UV transilluminator. The experiment was repeated three times.\nLane 1 and 2, decatenated and linear kDNA, respectively."}, "tubulin": {"tested_on": "tubulin", "assay": "In vitro tubulin-polymerization assay (turbidity at 350 nm)", "format": "biochemical", "details": "10 µM", "method": "Tubulin-polymerization inihibition was measured using in vitro Tubulin-Polymerization Assay Kit purchased fromEMD Millipore Corporation. Polymerization reactions occur in 70 µL final volumes, of which 60 µL is the 60 µM tubulin in 1 × PB-GTP and 10 µL is the test substance dissolved in 1 × PB-GTP. […] These reactives were combined in 96-well plate on ice. After the plate was transferred into the spectrophotometer pre-warmed at 37 °C and the turbidity variation was measured every 30 s at 350 nm for 90 min. The plate was shaked for 10 s before each measurement. Turbidity (absorbance) readings were used to calculate the extent of polymerization [% inhibition = (1−A350 sample/A350 control) × 100].\nFigure 4 Tubulin-polymerization assay. […] Two positive control molecules, Paclitaxel and Vinblastine, were used as tubulin-stabilizing and tubulin-destabilizing agents, respectively. DMSO was used as a negative control. Assembly of tubulin into microtubules was determined by measuring the turbidity at 350 nm for 3600 s at 37 °C. All the compounds were used at a concentration of 10 μM."}},
  "note": "Like-named read-outs stand apart in the source and are kept apart here.",
  "data": [
    {"molecule": "C[n+]1c(Cl)c(Cl)n(CC(O)c2ccccc2)[c]1[Au-][c]1n(CC(O)c2ccccc2)c(Cl)c(Cl)[n+]1C.[Cl][Au-][Cl]", "note": "(racemic) [AuL7, bis-[4,5-dichloro-(N-methyl-N’(2-hydroxy-2-phenyl)ethyl-imidazole-2-ylidene)gold(I)]^+[dichloro-gold]^−]", "values": [
      {"measurement": "inhibition of hTopo I supercoil relaxing activity", "setting": "[1]", "value": "totally inhibition"},
      {"measurement": "IC50", "setting": "[2]; normal cells, MTT, 72 h, mean ± SD, read-out: IC50 Hek-293", "value": 65, "unit": "µM"},
      {"measurement": "IC50", "setting": "[2]; read-out: IC50 Hek-293 of AuL7 after Quercetin pre-treatment, pre-treatment for 4 h with Quercetin (at 50 μM)", "value": "96.9 ± 1.1", "unit": "µM"},
      {"measurement": "inhibition of hTopo II decatenation activity", "setting": "[3]", "value": "total blockade of hTopoII activity"},
      {"measurement": "effect on tubulin-polymerization reaction", "setting": "tubulin", "value": "tubulin-polymerization inhibitor"},
      {"measurement": "final optical density value at 350 nm (OD350)", "setting": "tubulin; 37 °C, vehicle (DMSO) about 0.43", "value": "about 0.25"}
    ]}
  ]
}
